Tests used:
[1] = system: P-388; experiment: Inhibition of cell growth by counting cells, P-388; assay type: cell-based, mouse; settings: Mus musculus, P388, 72 h; three days of incubation; read-out: IC50 (molar) P-388
Outline: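 Mouse P-388 lymphoid neoplasm suspension cells seeded at 1×10^4 cells/well in EMEM 5% FCS containing graded sample concentrations, in duplicate alongside drug-free growth controls. Cells counted by Coulter counter; % growth vs untreated gives dose-response curves, IC50 = concentration producing 50% growth inhibition.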

[2] = system: A-549; experiment: Inhibition of cell growth by counting cells, A-549; assay type: cell-based, human; settings: Homo sapiens, A549, 72 h; three days of incubation; read-out: IC50 (molar) A-549
Outline: (§1)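 Human tumor cells were seeded at 1×10^4 cells per well in EMEM with 5% FCS containing graded compound concentrations, in duplicate, and incubated three days at 37° C, 5% CO2. Cells were then trypsinized and counted electronically; IC50 came from dose-response curves of percent growth versus drug-free controls.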

[3] = system: HT-29; experiment: Inhibition of cell growth by counting cells, HT-29; assay type: cell-based, human; settings: Homo sapiens, HT-29, 72 h; three days of incubation; read-out: IC50 (molar) HT-29
Outline: as §1

[4] = system: MEL-28; experiment: Inhibition of cell growth by counting cells, MEL-28; assay type: cell-based, human; settings: Homo sapiens, SK-MEL-28, 72 h; three days of incubation; read-out: IC50 (molar) MEL-28
Outline: as §1

[5] = system: Liver
Source text: (§3) Toxicity was asssessed by the methods reported in Toxicology in Vitro, 15 (2001) 571-577, J. Luber Narod et al.: “Evaluation of the use of in vitro methodolodies as tools for screening new compounds for potential in vivo toxicity”.

[6] = system: Heart
Source text: as §3

[7] = system: Myelo
Source text: as §3

[8] = system: Kidney
Source text: as §3

[9] = system: Skeletal
Source text: as §3

[10] = system: K-562; experiment: Inhibition of cells growth by colorimetric assay (SRB), K-562; assay type: cell-based; settings: K-562, SRB, 48 hours exposure
Outline: (§2)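 Human cancer and endothelial lines are seeded at 5×10^3 cells per well and, after 18 h, treated for 48 h with compound dissolved in DMSO/EtOH/PBS (0.5:0.5:99) at 10 to 10^−8 μg/ml. Cell mass is quantified by SRB staining (OD 490 nm), and growth inhibition, total growth inhibition and cell kill are calculated from triplicate wells.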

[11] = system: A-549; experiment: Inhibition of cells growth by colorimetric assay (SRB), A-549; assay type: cell-based; settings: A-549, SRB, 48 hours exposure
Outline: as §2

[12] = system: SK-MEL-28; experiment: Inhibition of cells growth by colorimetric assay (SRB), SK-MEL-28; assay type: cell-based; settings: MEL-28, SRB, 48 hours exposure
Outline: as §2

[13] = system: HT-29; experiment: Inhibition of cells growth by colorimetric assay (SRB), HT-29; assay type: cell-based; settings: HT-29, SRB, 48 hours exposure
Outline: as §2

[14] = system: LoVo; experiment: Inhibition of cells growth by colorimetric assay (SRB), LoVo; assay type: cell-based; settings: LOVO, SRB, 48 hours exposure
Outline: as §2

[15] = system: LoVo-Dox; experiment: Inhibition of cells growth by colorimetric assay (SRB), LoVo-Dox; assay type: cell-based; settings: LOVO-DOX, SRB, 48 hours exposure
Outline: as §2

[16] = system: DU-145; experiment: Inhibition of cells growth by colorimetric assay (SRB), DU-145; assay type: cell-based; settings: DU-145, SRB, 48 hours exposure
Outline: as §2

[17] = system: LNCaP; experiment: Inhibition of cells growth by colorimetric assay (SRB), LNCaP; assay type: cell-based; settings: LNCAP, SRB, 48 hours exposure
Outline: as §2

[18] = system: SK-BR-3; experiment: Inhibition of cells growth by colorimetric assay (SRB), SK-BR-3; assay type: cell-based; settings: SK-BR3, SRB, 48 hours exposure
Outline: as §2

[19] = system: IGROV-1; experiment: Inhibition of cells growth by colorimetric assay (SRB), IGROV-1; assay type: cell-based; settings: IGROV, SRB, 48 hours exposure
Outline: as §2

[20] = system: IGROV-ET; experiment: Inhibition of cells growth by colorimetric assay (SRB), IGROV-ET; assay type: cell-based; settings: IGROV-ET, SRB, 48 hours exposure
Outline: as §2

[21] = system: SK-OV-3; experiment: Inhibition of cells growth by colorimetric assay (SRB), SK-OV-3; assay type: cell-based; settings: SK-OV3, SRB, 48 hours exposure
Outline: as §2

[22] = system: PANC-1; experiment: Inhibition of cells growth by colorimetric assay (SRB), PANC-1; assay type: cell-based; settings: PANC-1, SRB, 48 hours exposure
Outline: as §2

[23] = system: HMEC1; experiment: Inhibition of cells growth by colorimetric assay (SRB), HMEC1; assay type: cell-based; settings: HMEC-1, SRB, 48 hours exposure
Outline: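 Sulforhodamine B protein-stain readout (490 nm) after 48 h drug exposure, with GI, TGI and LC parameters calculated from triplicate means. Cells seeded at 5×10^3 per well, allowed 18 h drug-free attachment; dose range 10 to 10^−8 μg/ml, vehicle DMSO/EtOH/PBS (0.5:0.5:99).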

SMILES: COc1cc2c(cc1OC(C)=O)CCN[C@]21CS[C@@H]2c3c(OC(C)=O)c(C)c4c(c3[C@H](COC1=O)N1C2[C@H]2c3c(cc(C)c(OC)c3O)C[C@@H]([C@@H]1O)N2C)OCO4 (some centres unmarked) [Compound 57]
- IC50 [1]: 0.149 nM
- IC50 [2]: 0.149 nM
- IC50 [3]: 0.149 nM
- IC50 [4]: 0.149 nM
- Toxicity Data Liver [5]: 4.66E-09
- Toxicity Data Heart [6]: 3.48E-09
- Toxicity Data Myelo [7]: 1.85E-08
- Toxicity Data Kidney [8]: 3.35E-09

SMILES: CCOc1cc2c(cc1OC)[C@@]1(CS[C@@H]3c4c(OC(C)=O)c(C)c5c(c4[C@H](COC1=O)N1C3[C@H]3c4c(cc(C)c(OC)c4O)C[C@@H]([C@@H]1O)N3C)OCO5)NCC2 (some centres unmarked) [Compound 68]
- IC50 [2]: 0.633 nM
- IC50 [3]: 0.633 nM
- Toxicity Data Liver [5]: 1.76E-08
- Toxicity Data Heart [6]: 1.13E-08
- Toxicity Data Myelo [7]: 1.89E-08
- Toxicity Data Skeletal [9]: 1.27E-08
- Toxicity Data Kidney [8]: 5.10E-09

SMILES: COc1cc2c(cc1OC(=O)Cc1cc(=O)oc3cc(N(C)C)ccc13)CCN[C@]21CS[C@@H]2c3c(OC(C)=O)c(C)c4c(c3[C@H](COC1=O)N1C2[C@H]2c3c(cc(C)c(OC)c3OC(=O)Cc3cc(=O)oc5cc(N(C)C)ccc35)C[C@@H]([C@@H]1O)N2C)OCO4 (some centres unmarked) [Compound 78]
- K-562 TGI [10]: 2.56E-09
- GI50 ([10]; read-out: K-562 GI50): 1.24 nM
- LC50 (50% cell killing) ([10]; read-out: K-562 LC50): 7.5 nM
- TGI A-549 [11]: 1.99E-08
- GI50 ([11]; read-out: GI50 A-549): 9.59 nM
- LC50 (concentration for 50% cell killing) ([11]; read-out: A-549 LC50): 41.1 nM
- MEL-28 TGI [12]: 4.48E-09
- GI50 ([12]; read-out: MEL-28 GI50): 2.15 nM
- CC50 ([12]; read-out: MEL-28 LC50): 16.9 nM
- HT-29 TGI [13]: 1.10E-07
- GI50 ([13]; read-out: HT-29 GI50): 17.1 nM
- LOVO TGI [14]: 2.83E-08
- GI50 ([14]; read-out: LOVO GI50): 10.7 nM
- LC50 (concentration for 50% cell killing) ([14]; read-out: LOVO LC50): 74.3 nM
- LOVO-DOX TGI [15]: 8.77E-07
- GI50 ([15]; read-out: LOVO-DOX GI50): 88.5 nM
- DU-145 TGI [16]: 8.52E-09
- GI50 ([16]; read-out: DU-145 GI50): 3.21 nM
- LNCAP TGI [17]: 4.05E-09
- GI50 ([17]; read-out: LNCAP GI50): 2.74 nM
- CC50 ([17]; read-out: LNCAP LC50): 5.99 nM
- SK-BR3 TGI [18]: 1.70E-08
- GI50 ([18]; read-out: SK-BR3 GI50): 4.31 nM
- CC50 ([18]; read-out: SK-BR3 LC50): 63.3 nM
- IGROV TGI [19]: 6.27E-09
- GI50 ([19]; read-out: IGROV GI50): 2.38 nM
- CC50 ([19]; read-out: IGROV LC50): 53.9 nM
- IGROV-ET TGI [20]: 7.42E-07
- GI50 ([20]; read-out: IGROV-ET GI50): 114 nM
- SK-OV3 TGI [21]: 6.27E-08
- GI50 ([21]; read-out: SK-OV3 GI50): 3.79 nM
- PANC-1 TGI [22]: 3.24E-08
- GI50 ([22]; read-out: PANC-1 GI50): 5.42 nM
- LC50 (concentration for 50% net cell kill) ([22]; read-out: PANC-1 LC50): 4900 nM
- HMEC-1 TGI [23]: 2.35E-07
- GI50 ([23]; read-out: HMEC-1 GI50): 28.3 nM
- Toxicity Data Liver [5]: 5.88E-08
- Toxicity Data Heart [6]: 8.19E-07
- Toxicity Data Skeletal [9]: 1.96E-08
- Toxicity Data Kidney [8]: 2.59E-07

SMILES: COc1cc2c(cc1OC(=O)[C@H](C)NC(=O)OC(C)(C)C)CCN[C@]21CS[C@@H]2c3c(OC(C)=O)c(C)c4c(c3[C@H](COC1=O)N1C2[C@H]2c3c(cc(C)c(OC)c3O)C[C@@H]([C@@H]1O)N2C)OCO4 (some centres unmarked) [Compound 79]
- IC50 [2]: 0.107 nM
- IC50 [3]: 0.107 nM
- Toxicity Data Liver [5]: 2.28E-08
- Toxicity Data Heart [6]: 3.46E-08
- Toxicity Data Myelo [7]: 1.35E-08
- Toxicity Data Skeletal [9]: 2.75E-09
- Toxicity Data Kidney [8]: 1.74E-08

— US7759345B2, “Antitumoral derivatives of ET-743” (priority 2001, dated 2010)
